# Test results published in patent US5441936A, “Antiviral peptides” (priority 1993, dated 1995).
# Non-standard residues stand in square brackets, D forms with d. Residues, ends and D or L forms follow the SMILES beside them.
# System: Herpes Simplex Virus Type-1
# Assay: Herpes Simplex Virus Type-1 plaque inhibition assay in Vero cells
# Format: cell-based, Herpes simplex type 1 virus (HSV-1)
# Conditions: Vero cells infected with 50 to 60 pfu HSV-1; peptide added after 2 hr virus incubation; concentration that inhibited growth of 50% of the input HSV-1
# Procedure: Vero cells were seeded into 24-we! l tissue culture plates 24 to 48 hr prior to performing the plaque assay. Herpes simplex type 1 virus (HSV-1) was diluted to 50 to 60 plaque forming units (pfu)/0.1 ml Medium 199 and 0.1 ml was added to the cells. Control cultures received 0.1 ml Medium 199 without HSV-1. Plates were incubated for 2 hr at 37° C. in 5% carbon dioxide.
# Following incubation of the cells with or without HSV-1, the medium was removed by aspiration. The peptides to be tested for antiviral activity were diluted in Dulbecco's modified Eagle's medium supplemented with 0.2% human gamma globulin, 5% fetal bovine serum, 10 units/ml penicillin and 5μg/ml streptomycin and 1 ml of the peptide solution was added to each of duplicate wells. Medium only was added to wells labelled for input virus or cell controls.
# Cells were observed by microscopy at 24 and 48 hr to identify toxicity due to the peptides. Following the incubation period, medium was removed by aspiration and the cultures were fixed using methanol and stained with 0.037% Geimsa for 45 min. The stain was removed and the plates were rinsed and allowed to air dry. The concentration of peptide that inhibited growth of 50% of the input HSV-1 (IC50) was determined for each peptide by counting the number of viral plaques present in the peptide-treated wells as compared with the input virus control wells.
# Using the plaque inhibition assay, a peptide was considered to have no antiviral effect in this assay if greater than 100 μg/ml of the peptide was required to inhibit growth of 50% of the input HSV-1.
row,Structure (SMILES),Herpes Simplex Virus Type-1 Plaque Inhibition IC50 [µg/mL]
1,CC(=O)N[C@H](CCCNC(=N)N)C(=O)N[C@H](CCCNC(=N)N)C(=O)N[C@H](Cc1c[nH]c2ccccc12)C(=O)N[C@H](Cc1c[nH]c2ccccc12)C(=O)N[C@H](CS)C(=O)N[C@H](CCCNC(=N)N)C(=O)N[C@H](C)C(N)=O [Ac-Arg-Arg-Trp-Trp-Cys-Arg-Ala-NH2],35
2,CC(=O)N[C@H](CCCNC(=N)N)C(=O)N[C@H](CCCNC(=N)N)C(=O)N[C@H](Cc1c[nH]c2ccccc12)C(=O)N[C@H](Cc1c[nH]c2ccccc12)C(=O)N[C@H](CS)C(=O)N[C@H](CCCNC(=N)N)C(=O)N[C@H](CCCNC(=N)N)C(N)=O [Ac-Arg-Arg-Trp-Trp-Cys-Arg-Arg-NH2],62
3,CC(=O)N[C@H](CCCNC(=N)N)C(=O)N[C@H](CCCNC(=N)N)C(=O)N[C@H](Cc1c[nH]c2ccccc12)C(=O)N[C@H](Cc1c[nH]c2ccccc12)C(=O)N[C@H](CS)C(=O)N[C@H](CCCNC(=N)N)C(=O)N[C@H](CC(N)=O)C(N)=O [Ac-Arg-Arg-Trp-Trp-Cys-Arg-Asn-NH2],85
4,CC(=O)N[C@H](CCCNC(=N)N)C(=O)N[C@H](CCCNC(=N)N)C(=O)N[C@H](Cc1c[nH]c2ccccc12)C(=O)N[C@H](Cc1c[nH]c2ccccc12)C(=O)N[C@H](CS)C(=O)N[C@H](CCCNC(=N)N)C(=O)N[C@H](CC(=O)O)C(N)=O [Ac-Arg-Arg-Trp-Trp-Cys-Arg-Asp-NH2],> 100
5,CC(=O)N[C@H](CCCNC(=N)N)C(=O)N[C@H](CCCNC(=N)N)C(=O)N[C@H](Cc1c[nH]c2ccccc12)C(=O)N[C@H](Cc1c[nH]c2ccccc12)C(=O)N[C@H](CS)C(=O)N[C@H](CCCNC(=N)N)C(=O)N[C@H](CS)C(N)=O [Ac-Arg-Arg-Trp-Trp-Cys-Arg-Cys-NH2] (Ac-[dR][dR][dW][dW][dC][dR][dC]-NH2),50
6,CC(=O)N[C@H](CCCNC(=N)N)C(=O)N[C@H](CCCNC(=N)N)C(=O)N[C@H](Cc1c[nH]c2ccccc12)C(=O)N[C@H](Cc1c[nH]c2ccccc12)C(=O)N[C@H](CS)C(=O)N[C@H](CCCNC(=N)N)C(=O)N[C@H](CCC(N)=O)C(N)=O [Ac-Arg-Arg-Trp-Trp-Cys-Arg-Gln-NH2],37
7,CC(=O)N[C@H](CCCNC(=N)N)C(=O)N[C@H](CCCNC(=N)N)C(=O)N[C@H](Cc1c[nH]c2ccccc12)C(=O)N[C@H](Cc1c[nH]c2ccccc12)C(=O)N[C@H](CS)C(=O)N[C@H](CCCNC(=N)N)C(=O)N[C@H](CCC(=O)O)C(N)=O [Ac-Arg-Arg-Trp-Trp-Cys-Arg-Glu-NH2],> 100
8,CC(=O)N[C@H](CCCNC(=N)N)C(=O)N[C@H](CCCNC(=N)N)C(=O)N[C@H](Cc1c[nH]c2ccccc12)C(=O)N[C@H](Cc1c[nH]c2ccccc12)C(=O)N[C@H](CS)C(=O)N[C@H](CCCNC(=N)N)C(=O)NCC(N)=O [Ac-Arg-Arg-Trp-Trp-Cys-Arg-Gly-NH2],> 100
9,CC(=O)N[C@H](CCCNC(=N)N)C(=O)N[C@H](CCCNC(=N)N)C(=O)N[C@H](Cc1c[nH]c2ccccc12)C(=O)N[C@H](Cc1c[nH]c2ccccc12)C(=O)N[C@H](CS)C(=O)N[C@H](CCCNC(=N)N)C(=O)N[C@H](Cc1c[nH]cn1)C(N)=O [Ac-Arg-Arg-Trp-Trp-Cys-Arg-His-NH2],> 100
10,CC[C@@H](C)[C@@H](NC(=O)[C@@H](CCCNC(=N)N)NC(=O)[C@@H](CS)NC(=O)[C@@H](Cc1c[nH]c2ccccc12)NC(=O)[C@@H](Cc1c[nH]c2ccccc12)NC(=O)[C@@H](CCCNC(=N)N)NC(=O)[C@@H](CCCNC(=N)N)NC(C)=O)C(N)=O [Ac-Arg-Arg-Trp-Trp-Cys-Arg-Ile-NH2],> 100
11,CC(=O)N[C@H](CCCNC(=N)N)C(=O)N[C@H](CCCNC(=N)N)C(=O)N[C@H](Cc1c[nH]c2ccccc12)C(=O)N[C@H](Cc1c[nH]c2ccccc12)C(=O)N[C@H](CS)C(=O)N[C@H](CCCNC(=N)N)C(=O)N[C@H](CC(C)C)C(N)=O [Ac-Arg-Arg-Trp-Trp-Cys-Arg-Leu-NH2],61
12,CC(=O)N[C@H](CCCNC(=N)N)C(=O)N[C@H](CCCNC(=N)N)C(=O)N[C@H](Cc1c[nH]c2ccccc12)C(=O)N[C@H](Cc1c[nH]c2ccccc12)C(=O)N[C@H](CS)C(=O)N[C@H](CCCNC(=N)N)C(=O)N[C@H](CCCCN)C(N)=O [Ac-Arg-Arg-Trp-Trp-Cys-Arg-Lys-NH2],50
13,CSCC[C@@H](NC(=O)[C@@H](CCCNC(=N)N)NC(=O)[C@@H](CS)NC(=O)[C@@H](Cc1c[nH]c2ccccc12)NC(=O)[C@@H](Cc1c[nH]c2ccccc12)NC(=O)[C@@H](CCCNC(=N)N)NC(=O)[C@@H](CCCNC(=N)N)NC(C)=O)C(N)=O [Ac-Arg-Arg-Trp-Trp-Cys-Arg-Met-NH2],> 50
14,CC(=O)N[C@H](CCCNC(=N)N)C(=O)N[C@H](CCCNC(=N)N)C(=O)N[C@H](Cc1c[nH]c2ccccc12)C(=O)N[C@H](Cc1c[nH]c2ccccc12)C(=O)N[C@H](CS)C(=O)N[C@H](CCCNC(=N)N)C(=O)N[C@H](Cc1ccccc1)C(N)=O [Ac-Arg-Arg-Trp-Trp-Cys-Arg-Phe-NH2],59
15,CC(=O)N[C@H](CCCNC(=N)N)C(=O)N[C@H](CCCNC(=N)N)C(=O)N[C@H](Cc1c[nH]c2ccccc12)C(=O)N[C@H](Cc1c[nH]c2ccccc12)C(=O)N[C@H](CS)C(=O)N[C@H](CCCNC(=N)N)C(=O)N1CCC[C@@H]1C(N)=O [Ac-Arg-Arg-Trp-Trp-Cys-Arg-Pro-NH2],> 100
16,CC(=O)N[C@H](CCCNC(=N)N)C(=O)N[C@H](CCCNC(=N)N)C(=O)N[C@H](Cc1c[nH]c2ccccc12)C(=O)N[C@H](Cc1c[nH]c2ccccc12)C(=O)N[C@H](CS)C(=O)N[C@H](CCCNC(=N)N)C(=O)N[C@H](CO)C(N)=O [Ac-Arg-Arg-Trp-Trp-Cys-Arg-Ser-NH2],> 100
17,CC(=O)N[C@H](CCCNC(=N)N)C(=O)N[C@H](CCCNC(=N)N)C(=O)N[C@H](Cc1c[nH]c2ccccc12)C(=O)N[C@H](Cc1c[nH]c2ccccc12)C(=O)N[C@H](CS)C(=O)N[C@H](CCCNC(=N)N)C(=O)N[C@@H](C(N)=O)[C@H](C)O [Ac-Arg-Arg-Trp-Trp-Cys-Arg-Thr-NH2],> 100
18,CC(=O)N[C@H](CCCNC(=N)N)C(=O)N[C@H](CCCNC(=N)N)C(=O)N[C@H](Cc1c[nH]c2ccccc12)C(=O)N[C@H](Cc1c[nH]c2ccccc12)C(=O)N[C@H](CS)C(=O)N[C@H](CCCNC(=N)N)C(=O)N[C@H](Cc1c[nH]c2ccccc12)C(N)=O [Ac-Arg-Arg-Trp-Trp-Cys-Arg-Trp-NH2],37
19,CC(=O)N[C@H](CCCNC(=N)N)C(=O)N[C@H](CCCNC(=N)N)C(=O)N[C@H](Cc1c[nH]c2ccccc12)C(=O)N[C@H](Cc1c[nH]c2ccccc12)C(=O)N[C@H](CS)C(=O)N[C@H](CCCNC(=N)N)C(=O)N[C@H](Cc1ccc(O)cc1)C(N)=O [Ac-Arg-Arg-Trp-Trp-Cys-Arg-Tyr-NH2],> 100
20,CC(=O)N[C@H](CCCNC(=N)N)C(=O)N[C@H](CCCNC(=N)N)C(=O)N[C@H](Cc1c[nH]c2ccccc12)C(=O)N[C@H](Cc1c[nH]c2ccccc12)C(=O)N[C@H](CS)C(=O)N[C@H](CCCNC(=N)N)C(=O)N[C@@H](C(N)=O)C(C)C [Ac-Arg-Arg-Trp-Trp-Cys-Arg-Val-NH2],58
